The source made the active and inactive calls. The rule behind the calls is not given here.
What was measured:
[1] = Subacute toxicity in rat assessed as spleen damage at 100 to 500 mg/kg, IG administered every other day for 14 days and measured every 2 days by H and E staining; type: organism-based; details: in vivo, po, 336 h, dose 100-500 mg/kg, time 14 day
Rattus norvegicus [2] = test: Antiinflammatory activity in complete freund's adjuvant-induced male Sprague-Dawley rat model of arthritis assessed as reduction in synovial hyperplasia at 40 to 80 mg/kg, IG after 2 weeks by Safranin O staining based histopathological analysis; type: functional, organism-based; details: dose 40-80 mg/kg
[3] = molecular target: T1, Nitric oxide synthase, inducible (Mus musculus, UniProt P29477); test: Inhibition of LPS induced NO-dependent iNOS activity in mouse RAW 264.7 cells preincubated for 1 hrs followed by LPS stimulation and measured after 24 hrs by Griess reagent based assay; type: cell-based, RAW264.7
T1 sequence (P29477 whole entry): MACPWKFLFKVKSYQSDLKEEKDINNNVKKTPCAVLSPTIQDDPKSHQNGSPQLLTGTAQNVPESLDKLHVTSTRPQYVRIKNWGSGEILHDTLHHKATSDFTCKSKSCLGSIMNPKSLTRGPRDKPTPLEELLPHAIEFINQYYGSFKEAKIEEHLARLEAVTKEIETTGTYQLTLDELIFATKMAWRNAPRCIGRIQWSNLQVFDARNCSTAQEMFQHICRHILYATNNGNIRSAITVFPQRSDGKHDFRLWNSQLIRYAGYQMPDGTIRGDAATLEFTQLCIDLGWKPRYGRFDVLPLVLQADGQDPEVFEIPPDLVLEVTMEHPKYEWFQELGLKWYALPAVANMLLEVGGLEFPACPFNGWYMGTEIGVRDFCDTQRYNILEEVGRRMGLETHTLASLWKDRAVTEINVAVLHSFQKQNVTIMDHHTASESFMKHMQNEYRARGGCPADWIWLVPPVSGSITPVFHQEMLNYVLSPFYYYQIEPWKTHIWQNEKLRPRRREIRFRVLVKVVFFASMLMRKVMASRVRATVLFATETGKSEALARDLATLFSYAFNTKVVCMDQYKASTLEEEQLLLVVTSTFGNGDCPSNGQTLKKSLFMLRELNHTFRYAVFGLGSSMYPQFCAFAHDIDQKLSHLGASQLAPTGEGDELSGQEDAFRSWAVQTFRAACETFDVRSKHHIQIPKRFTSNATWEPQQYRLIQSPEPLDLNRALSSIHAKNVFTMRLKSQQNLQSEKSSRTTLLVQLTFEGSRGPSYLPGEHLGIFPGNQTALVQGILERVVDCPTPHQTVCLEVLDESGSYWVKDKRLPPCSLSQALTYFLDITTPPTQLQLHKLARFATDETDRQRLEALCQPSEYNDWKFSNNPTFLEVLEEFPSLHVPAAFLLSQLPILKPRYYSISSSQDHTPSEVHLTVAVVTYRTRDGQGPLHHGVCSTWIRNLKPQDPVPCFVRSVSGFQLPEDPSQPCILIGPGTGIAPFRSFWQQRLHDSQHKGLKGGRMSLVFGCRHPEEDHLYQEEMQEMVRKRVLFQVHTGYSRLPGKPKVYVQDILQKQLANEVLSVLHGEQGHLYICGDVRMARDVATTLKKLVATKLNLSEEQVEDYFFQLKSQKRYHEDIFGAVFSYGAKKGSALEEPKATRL

[4] = Subacute toxicity in rat assessed as lung damage at 100 to 500 mg/kg, IG administered every other day for 14 days and measured every 2 days by H and E staining; type: organism-based; details: in vivo, po, 336 h, dose 100-500 mg/kg, time 14 day
[5] = Subacute toxicity in rat assessed as fur wrinkles at 100 to 500 mg/kg, IG administered every other day for 14 days and measured every 2 days; type: organism-based; details: in vivo, po, 336 h, dose 100-500 mg/kg, time 14 day
[6] = Subacute toxicity in rat assessed as clonic convulsions at 100 to 500 mg/kg, IG administered every other day for 14 days and measured every 2 days; type: organism-based; details: in vivo, po, 336 h, dose 100-500 mg/kg, time 14 day
[7] = Acute toxicity in rat assessed as drowsiness at 2000 mg/kg, IG administered as single dose; type: organism-based; details: in vivo, po
Cytochrome P450 2C9 = Cytochrome P450 2C9 (Homo sapiens, UniProt P11712); test: Inhibition of CYP2C9 in human liver microsomes using Diclofenac as substrate measured after 20 mins by LC-MS/MS analysis; type: ADME
[8] = Metabolic stability in human hepatocytes assessed as half life measured upto 120 mins by LC-MS/MS analysis; type: ADME, cell-based, Hepatocyte
L02 = test: Cytotoxicity against human L02 cells assessed as cell viability by MTT assay; type: cell-based
[9] = AUC (0 to infinity) in Sprague-Dawley rat at 1 mg/kg, iv measured by LC-MS analysis; type: ADME, organism-based; parameters: time infinity, route intravenous, dose 1 mg/kg; details: in vivo
[10] = Metabolic stability in rat hepatocytes assessed as half life measured upto 120 mins by LC-MS/MS analysis; type: ADME, cell-based, Hepatocyte
[11] = Volume of distribution at steady state in Sprague-Dawley rat at 1 mg/kg, iv measured after 0.08 to 24 hrs by LC-MS/MS analysis; type: ADME, organism-based; details: in vivo, time 0.08-24 hrs, read-out: Vdss
[12] = Acute toxicity in rat assessed as anorexia at 2000 mg/kg, IG administered as single dose; type: organism-based; details: in vivo, po
[13] = Cmax in Sprague-Dawley rat at 10 mg/kg, po measured after 0.25 to 24 hrs by LC-MS/MS analysis; type: ADME, organism-based; parameters: route oral, time lower 0.25 hrs, dose 10 mg/kg, time upper 24 hrs; details: in vivo
[14] = Acute toxicity in rat assessed as weight loss at 2000 mg/kg, IG administered as single dose; type: organism-based; details: in vivo, po
[15] = Subacute toxicity in rat assessed as liver damage at 100 to 500 mg/kg, IG administered every other day for 14 days and measured every 2 days by H and E staining; type: organism-based; details: in vivo, po, 336 h, dose 100-500 mg/kg, time 14 day
Rattus norvegicus [16] = test: Antiinflammatory activity in complete freund's adjuvant-induced IG dosed male Sprague-Dawley rat model of arthritis assessed as decrease in IL-1beta level in serum after 4 weeks by ELISA; type: functional, organism-based; details: dose 40-80 mg/kg
Rattus norvegicus [17] = species: Rattus norvegicus; test: Antiinflammatory activity against freund's adjuvant-induced male Sprague-Dawley rat model of arthritis assessed as decrease INOS expression at 40 to 80, IG after 4 weeks measured by staining based immunohistochemical analysis; type: functional, organism-based; details: dose 40-80 mg/kg
[18] = Subacute toxicity in rat assessed as anorexia at 100 to 500 mg/kg, IG administered every other day for 14 days and measured every 2 days; type: organism-based; details: in vivo, po, 336 h, dose 100-500 mg/kg, time 14 day
Cytochrome P450 2D6 = Cytochrome P450 2D6 (Homo sapiens, UniProt P10635); test: Inhibition of CYP2D6 in human liver microsomes using Dextromethorphan as substrate measured after 20 mins by LC-MS/MS analysis; type: ADME
Rattus norvegicus [19] = test: Antiinflammatory activity in complete freund's adjuvant-induced IG dosed male Sprague-Dawley rat model of arthritis assessed as decrease in TNF-alpha level in serum after 4 weeks by ELISA; type: functional, organism-based; details: dose 40-80 mg/kg
RAW264.7 [20] = test: Inhibition of LPS-induced NO release in mouse RAW264.7 cells preincubated for 1 hrs followed by LPS stimulation and measured after 24 hrs by Griess reagent based assay; type: functional, cell-based
[21] = Acute toxicity in rat assessed as mortality at 2000 mg/kg, IG administered as single dose; type: organism-based; details: in vivo, po
RAW264.7 [22] = test: Cytotoxicity against mouse RAW 264.7 cells assessed as cell viability by MTT assay; type: cell-based
[23] = Half life in Sprague-Dawley rat at 1 mg/kg, iv measured after 0.08 to 24 hrs by LC-MS/MS analysis; type: ADME, organism-based; details: in vivo, time 0.08-24 hrs

Chain of Cytochrome P450 2D6 (P10635 whole entry): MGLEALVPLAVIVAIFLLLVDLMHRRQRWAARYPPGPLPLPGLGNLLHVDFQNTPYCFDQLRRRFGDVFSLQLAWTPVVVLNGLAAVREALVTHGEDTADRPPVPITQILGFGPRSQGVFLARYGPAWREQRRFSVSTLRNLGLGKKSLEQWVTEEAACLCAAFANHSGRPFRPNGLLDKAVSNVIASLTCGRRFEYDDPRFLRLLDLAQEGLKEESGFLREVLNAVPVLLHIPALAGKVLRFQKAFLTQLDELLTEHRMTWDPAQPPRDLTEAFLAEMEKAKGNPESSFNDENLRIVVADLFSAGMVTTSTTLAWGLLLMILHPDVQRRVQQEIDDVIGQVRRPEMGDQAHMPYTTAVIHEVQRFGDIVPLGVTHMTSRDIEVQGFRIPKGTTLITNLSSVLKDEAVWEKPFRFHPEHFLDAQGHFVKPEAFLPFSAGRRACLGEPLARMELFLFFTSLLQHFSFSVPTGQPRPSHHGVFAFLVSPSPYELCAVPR
Chain of Cytochrome P450 2C9 (P11712 whole entry): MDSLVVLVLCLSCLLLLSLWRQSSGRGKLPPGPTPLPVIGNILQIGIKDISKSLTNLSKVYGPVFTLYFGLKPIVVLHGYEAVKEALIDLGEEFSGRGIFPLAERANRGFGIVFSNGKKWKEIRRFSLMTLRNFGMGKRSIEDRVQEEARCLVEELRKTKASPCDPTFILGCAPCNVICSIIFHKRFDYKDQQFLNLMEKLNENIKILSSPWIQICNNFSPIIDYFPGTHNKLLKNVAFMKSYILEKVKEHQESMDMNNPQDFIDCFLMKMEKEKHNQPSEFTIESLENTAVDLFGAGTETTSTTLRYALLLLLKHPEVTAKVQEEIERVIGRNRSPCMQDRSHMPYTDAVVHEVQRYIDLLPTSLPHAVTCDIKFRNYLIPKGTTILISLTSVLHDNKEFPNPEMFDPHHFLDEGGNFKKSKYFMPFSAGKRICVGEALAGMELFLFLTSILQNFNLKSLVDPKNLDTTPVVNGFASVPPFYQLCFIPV

SMILES: COc1cc(/C=C/c2nc(NCc3ccc(C)cc3)c3sccc3n2)cc(OC)c1OC
- Activity [1]: Non-Toxic
- Activity (Rattus norvegicus [2]): Active
- IC50 [3]: 0.96 µM
- Activity [4]: Non-Toxic
- Activity [5]: Non-Toxic
- Activity [6]: Non-Toxic
- Activity [7]: Non-Toxic
- IC50 (Cytochrome P450 2C9): 8.91 µM
- half-life [8]: 5.44 h
- IC50 (L02): 2930 µM
- AUC(0-inf) [9]: 401 ng·h/mL
- half-life [10]: 0.925 h
- Vd [11]: 11.3 L/kg
- Activity [12]: Non-Toxic
- Cmax [13]: 131 ng/mL
- Activity [14]: Non-Toxic
- Activity [15]: Non-Toxic
- Activity (Rattus norvegicus [16]): Dose-Dependent Effect
- Activity (Rattus norvegicus [17]): Active
- Activity [18]: Non-Toxic
- IC50 (Cytochrome P450 2D6): > 50 µM
- Activity (Rattus norvegicus [19]): Dose-Dependent Effect
- IC50 (RAW264.7 [20]): 1.86 µM
- Activity [21]: Non-Toxic
- IC50 (RAW264.7 [22]): > 50 µM
- half-life [23]: 6.21 h
